Laboratory results: patent US20260014278A1, “HYBRID PEPTIDE DENDRIMER SYSTEMS AND EXTRAHEPATIC DELIVERY” (NUNTIUS THERAPEUTICS LIMITED, priority 2022, published 2026)

System: Mouse muscle cells (C2c12)
Experiment: eGFP expression (RFU/mg) in C2c12 muscle cells, muscle-targeting dendrimers
Format: cell-based
Conditions: N:P=0.6:1, DOTMA:DOPE w/w 10:1, 24 hours post-transfection; FIG. 9
Experimental: Cell lines, transfection reagents and mRNA. C2c12 cells were maintained in DMEM medium with 10% (v/v) FCS and 1% (v/v) L-glutamine in a humidified atmosphere in 5% CO2, and 37° C. The Alexa Fluor 488 tagged mRNA, expressing an eGFP, was purchased from RiboPro. The mRNA either expressing an eGFP or firefly luciferase was purchased from Trilink. DOTMA:DOPE, 1:1 (w/w) were obtained from Invitrogen or Encapsula NanoSciences LLC.
Transfection procedure. 24 hours before transfection, C2c12 cells were seeded in 96well plates in order to reach 70% confluence. mRNA transfection complexes were formed by mixing mRNA with the dendrimers in 25 mM HEPES buffer, then with DOTMA:DOPE in 25 mM HEPES buffer at 25° C. The transfection complexes were then overlaid to the cells in full growth medium. The cells were harvested 4 hours after transfection for FACS analysis or 24 hours post transfection for reporter genes assays.
Two variants (NTX2 and NTX3) of the peptide dendrimer GSCG1,2-RL, 3-LR ((LR)8(KRL)4(KRL)2KGSC-NH2) were made which include the ASSLNIA (SEQ ID NO:1) muscle targeting peptide. Transfection of muscle cells with GSCG1,2-RL, 3-LR, NTX2 ((LR)8(KRL)4(KRL)2[…](Acp)-NH2) or NTX3 ((LR)8(KRL)4(KRL)2[…](Acp)-NH2) was performed using eGFP mRNA and transfection efficiency was assayed using either flow cytometry or the transgene expression assay. […]
Transgene expression assay: The cells were washed twice with PBS and incubated with 50 ul of 1× M-PER lysis buffer (Thermo 11874111). […] 40 ul of lysate from each well was transferred to all black 96 well plates for quantification of eGFP relative fluorescence unit (RFU), absorbance at 535 nm, using Molecular devices SpectraMax iD5.
Protein content determination: The protein content of each cell lysate was determined by mixing the lysate (25 μL) with Pierce™ BCA Protein Assay Kit (200 ul, Thermo Scientific). After 30 minutes of 37° C. incubation in at dark, absorbance was measured at 562 nm with Molecular devices SpectraMax iD5 and converted to protein concentration using a BSA standard curve. […]

Row | Substance | increase in eGFP expression compared to GSCG1,2-RL, 3-LR
1 | (LR)8(KRL)4(KRL)2KGSCGAASSLNIA(Acp)-NH2 [NTX2] | two-fold

Same assay, conditions: N:P=0.6:1, DOTMA:DOPE w/w 10:1, 24 hours post-transfection; FIG. 10

Row | Substance | increase in eGFP expression compared to RHCG1-RL, 2-LR
2 | (LR)4(KRL)2KRHCGAASSLNIA-(Acp)-NH2 [NTX5] | ˜two-fold

System: not listed separately
Experiment: Dynamic light scattering: hydrodynamic size and polydispersity index (PDI) of nanoparticles
Format: physicochemical
Conditions: GSCG1,2-RHL N:P 0.6:1, DOTMA/DOPE nanoparticles coated at 2.06:1 (dendrimer to mRNA)
Experimental: (§1) The hydrodynamic size was measured using the dynamic light scattering (DLS) technique. DLS is a very sensitive, non-invasive method to measure size and size distribution of nanoparticles in a liquid. […] Analysing these intensity fluctuations allows us to calculate the velocity of the Brownian motion. The size of the nanoparticles can be determined by using the Stokes-Einstein relationship. With the latest technology, it can measure nanoparticles smaller than 1 nm.
PDI is used to estimate the average uniformity of a particle solution, The method of cumulants is a standard technique for analysing DLS data on sample polydispersity. PDI is a number calculated from a 2 parameter fit to the correlation data (the cumulants analysis). The cumulants analysis is used to evaluate the autocorrelation function generated by a DLS experiment. The calculation is defined in ISO 13321 and ISO 22412. PDI values greater than 0.7 indicate that the sample has a very broad size distribution and is not suitable for the DLS technique. The calculations for these parameters are defined in the ISO standard document 13321:1996 E and ISO 22412:2008.
as §1, with “Size, zeta potential and polydispersity index (PDI) measurement: The hydrodynamic” for “The hydrodynamic”, “scattering (DLS) technique using the Zetasizer Advance Series—Pro (Malvern Panalytical Ltd, Malvern, UK) according to the manufacturer's instructions. DLS is” for “scattering (DLS) technique. DLS is”
The data obtained with DLS measurements can also be used to calculate the PDI of particle in solution. PDI is used to estimate the average uniformity of a particle solution. The method of cumulants is a standard technique for analysing DLS data on sample polydispersity. PDI is a number calculated from a 2 parameter fit to the correlation data (the cumulants analysis). The cumulants analysis is used to evaluate the autocorrelation function generated by a DLS experiment. The calculation is defined in ISO 13321 and ISO 22412. PDI values greater than 0.7 indicate that the sample has a very broad size distribution and is not suitable for the DLS technique. The calculations for these parameters are defined in the ISO standard document 13321:1996 E and ISO 22412:2008.
To measure the size and PDI, the samples were diluted 16× in 25 mM HEPES buffer (5 μl sample+75 μl buffer). Parameters: reference material: polystyrene latex, dispersant: water, 25° C. The PDI measurements were measured in nanoparticles comprising a dendrimer:nucleic acid NP ratio of 8:1.

Row | Substance | PDI | size
3 | (Ac-EEEE)2KGSGGSGGSC-NH2 | 0.12 | 166 nm

Same assay, conditions: GSCG1,2-RHL N:P 0.6:1, DOTMA/DOPE nanoparticles coated at 2.72:1 (dendrimer to mRNA)

Row | Substance | PDI | size
4 | (Ac-EEEE)2KGSGGSGGSC-NH2 | 0.13 | 169 nm

Same assay, conditions: GSCG1,2-RHL N:P 0.6:1, DOTMA:DOPE nanoparticles; coating mol ratio 2.06 to mRNA P where coated

Row | Substance | Pdl | Z-average diameter
5 | (Ac-EEEE)2KGSGGSGGSACDCRGDCFCG-NH2 (Disulfide bridges: C1-C4, C2-C3) | 0.20 | 191 nm
6 | (Ac-EEEE)2KGSGGSGGSC-NH2 | 0.16 | 165 nm

Same assay, conditions: Table 7, first generation dendrimers for mixed dendrimer nanoparticles

Row | Substance | PDI
7 | (RLR)2KRHC-NH2 [RHCG1-RLR] | 0.766

Same assay, conditions: peptide dendrimer, lipid and mRNA complexes; N:P 8:1, DOTMA/DOPE w/w 10:1 to mRNA

Row | Substance | Polydispersity Index (PDI)
8 | (BR)8(KRB)4(KRX)2KGSC-NH2 [GSCG1-RX, 2-RB, 3-BR] | 0.403
9 | (FR)8(KRQ)4(KRW)2KGSC-NH2 [GSCG1-RW, 2-RQ, 3-FR] | 0.452
10 | (HK)8(KKH)4(KKL)2KGSC-NH2 [GSCG1-KL, 2-KH, 3-HK] | 0.126
11 | (LR)2KRHC-NH2 [RHCG1-LR] | 0.577
12 | (LR)8(DabRL)4(DabRL)2DabGSC-NH2 | 0.286
13 | (LR)8(KLR)4(KLR)2KGSC-NH2 [GSCG1,2,3-LR] | 0.272
14 | (LR)8(KR)4(KRLR)2KRHC-NH2 [RHCG1-RLR, 2-R, 3-LR] | 0.439
15 | (LR)8(KR)4(KRLRL)2KRHC-NH2 [RHCG1-RLRL, 2-R, 3-LR] | 0.37
16 | (LR)8(KRL)4(KRE)2KGSC-NH2 [GSCG1-RE, 2-RL, 3-LR] | 0.158
17 | (LR)8(KRL)4(KRL)2KA-NH2 [AG1,2-RL, 3-LR] | 0.184
18 | (LR)8(KRL)4(KRL)2KGSCRHCRFWRYM-NH2 [LinearG1,2-RL, 3-LR] | 0.289
19 | (LR)8(KRL)4(KRL)2KRFW-NH2 [RFWG1,2-RL, 3-LR] | 0.401
20 | (LR)8(KRL)4(KRL)2KRHC-NH2 [RHCG1,2-RL, 3-LR] | 0.363
21 | (LR)8(KRL)4(KRL)2KRYM-NH2 [RYMG1,2-RL, 3-LR] | 0.257
22 | (LR)8(KRL)4(KRL)2KYM-NH2 [YMG1,2-RL, 3-LR] | 0.213
23 | (LRLR)4(KLRLR)2KGSC-NH2 [GSCG1,2-LRLR] | 0.189

Row | Substance | Polydispersity Index (PDI)
24 | (LRLR)8(KLRLR)4(KLRLR)2KGSC-NH2 [GSCG1,2,3-LRLR] | 0.287
25 | (MR)8(KRC)4(KRC)2KGSC-NH2 [GSCG1-RC, 2-RC, 3-MR] | 0.19
26 | (QR)8(KRT)4(KRY)2KGSC-NH2 [GSCG1-RY, 2-RT, 3-QR] | 0.178
27 | (R)4(KR)2KRHC-NH2 [RHCG1,2-R] | 0.252
28 | (R)8(KR)4(KR)2KRHC-NH2 [RHCG1,2,3-R] | 0.396
29 | (R)8(KRL)4(KRLR)2KRHC-NH2 [RHCG1-RLR, 2-RL, 3-R] | 0.429
30 | (RL)8(KLR)4(KLR)2KGSC-NH2 [GSCG1,2-LR, 3-RL] | 0.242
31 | (RL)8(KRL)4(KLR)2KGSC-NH2 [GSCG1-LR, 2,3-RL] | 0.417
32 | (RLR)4(KRLR)2KRHC-NH2 [RHCG1,2-RLR] | 0.214
33 | (RLR)8(KRLR)4(KRLR)2KRHC-NH2 [RHCG1,2,3-RLR] | 0.299
34 | (RR)4(KLL)2KGSC-NH2 [GSCG1-LL, 2-RR] | 0.087
35 | (WR)8(KRM)4(KRF)2KGSC-NH2 [GSCG1-RF, 2-RM, 3-WR] | 0.277
36 | (YR)8(KRT)4(KRQ)2KGSC-NH2 [GSCG1-RQ, 2-RT, 3-YR] | 0.409
37 | (lR)8(KrL)4(KRL)2KGSC-NH2 [GSCG1-Rl, 2-rL, 3-lR] | 0.241
38 | (lr)8(krl)4(krl)2kgsc-NH2 | 0.246

System: not listed separately
Experiment: Zeta potential of nanoparticles (electrophoretic light scattering)
Format: physicochemical
Conditions: GSCG1,2-RHL N:P 0.6:1, DOTMA/DOPE nanoparticles coated at 2.06:1 (dendrimer to mRNA)
Excerpt: Zeta potential is a measurement of the magnitude of the electrostatic or charge repulsion/attraction between particles. This can be determined by analysing particle mobility and charge (Zeta potential) using the Electrophoretic Light Scattering (ELS) technique.
Zeta potential is a measurement of the magnitude of the electrostatic or charge repulsion/attraction between particles. This can be determined by analysing particle mobility and charge (Zeta potential) using the Electrophoretic Light Scattering (ELS) technique. […] Parameters: reference material: polystyrene latex, dispersant: water, 25° C. The measurements of the zeta potential were carried out using the Zetasizer Advance Series—Pro (Malvern Panalytical Ltd, Malvern, UK) according to the manufacturer's instructions.

Row | Substance | zeta potential
39 | (Ac-EEEE)2KGSGGSGGSC-NH2 | ~33.2 mV

Same assay, conditions: GSCG1,2-RHL N:P 0.6:1, DOTMA/DOPE nanoparticles coated at 2.72:1 (dendrimer to mRNA)

Row | Substance | zeta potential
40 | (Ac-EEEE)2KGSGGSGGSC-NH2 | ~35.4 mV

Same assay, conditions: GSCG1,2-RHL N:P 0.6:1, DOTMA:DOPE nanoparticles; coating mol ratio 2.06 to mRNA P where coated

Row | Substance | zeta potential
41 | (Ac-EEEE)2KGSGGSGGSACDCRGDCFCG-NH2 (Disulfide bridges: C1-C4, C2-C3) | −31.9 mV
42 | (Ac-EEEE)2KGSGGSGGSC-NH2 | −29.3 mV
